Where “and” joins values, the source holds several entries; their conditions need not be identical. Identical values can stand only once. Marks after values point to notes of the source that are not given here.

The test system of this assay is Arthus reaction in female c57BL/6 mice. Kind of assay: In vivo acute study: Arthus reaction model in mice. More on the design: species or system mouse. Particulars: for OD % Inhibition: dye extravasation (OD 610 nm). From the text: Arthus reaction is a type of local type III hypersensitivity reaction. Type III hypersensitivity reactions are immune complex-mediated, and involve the deposition of antigen/antibody complexes mainly in the vascular walls, serosa (pleura, pericardium, synovium), and glomeruli. This involves formation of antigen/antibody complexes after the intradermal injection of an antibody. If the animal was previously injected with antigen and dye (has circulating antigen), an Arthus reaction occurs. This manifests as local vasculitis due to deposition of immune complexes in dermal blood vessels. Activation of complement and recruitment of PMNs ensue, resulting in an inflammatory response and extravasation of dye to the skin. Compounds which can inhibit this complex process can have therapeutic implications in wide range of inflammatory and auto-immune disorders. See, Pine, “Inflammation and bone erosion are suppressed in models of rheumatoid arthritis following treatment with a novel Syk inhibitor”; Clin. Immunol. (2007) 124 (3): 244-57; and Sylvia, “R-406, an Orally Available Spleen Tyrosine Kinase Inhibitor Blocks Fc Receptor Signaling and Reduces Immune Complex-Mediated Inflammation”, JPET 319:998-1008, 2006, which are herein incorporated by reference.
Female c57BL/6 mice were given an antigen injection in which the antigen was 0.1% Ovalbumin (OVA) in PBS containing 1% Evans blue (EB) at the concentration of 10 mL/kg intravenously under Isoflurane anesthesia [2.5 mg/mouse with a body weight of 25 g]. Ten minutes after antigen injection; the animals were injected with the rabbit anti-OVA IgG (50 μg in 25 μL/site) (Polysciences; Cat #23744) intradermally on the shaved back at two top locations. Animals were also injected with phosphate buffered saline (PBS, 25 μL) intradermally on the back at two bottom and opposite locations to serve as negative control. The mice were euthanized by cervical dislocation 4 hours after antigen (Ovalbumin) challenge. Skin tissue was assessed for edema by tracing the edema area on to a transparent plastic sheet. Punch biopsies of the injection sites were collected.
Edema area was measured manually by scale. Two diameters were taken and averaged for each animal.
Punch biopsies of the injection sites (using 10 mm skin biopsy punches) were incubated in 2 mL of sodium sulfate: acetone mixture (0.6+1.4 mL) at room temperature for 16-18 hours. The supernatants were removed from digested tissues by centrifuging at 4000 rpm for 10 minutes, filtered and were read spectrophotometrically at 610 nm.
The percent inhibition of dye leakage was calculated with respect to control by the formula: […]
The percent inhibition of edema area was calculated with respect to control by the formula: […]
Means of different groups were compared with control using One way ANOVA followed by Dunnett's test. Significance was represented as follows.

For the compound `Cl.O=c1[nH]ncc2nc(-c3ccccc3)nc(Nc3ccc(CN4CCNCC4)cc3)c12` [Example 7, 2-phenyl-4-(4-(piperazin-1-ylmethyl)phenylamino)pyrimido[4,5-d]pyridazin-5(6H)-one hydrochloride], the “Edema area % Inhibition” value by setting is: (dose 3 mg/Kg) 41*** %; (dose 10 mg/Kg, hydrochloride) 45*** % and 53*** % and 30%; (dose 30 mg/Kg, hydrochloride) 68*** % and 74*** %. Also, the “OD % Inhibition” value is, setting by setting: (dose 3 mg/Kg) 40*** %; (dose 30 mg/Kg, hydrochloride) 67*** % and 65*** %.
Take `O=C(O)C1CC12CCN(c1ccc(Nc3nc(-c4ccccc4)nc4cn[nH]c(=O)c34)cc1)CC2` (stereo not shown) [Example 19, 6-(4-(5-oxo-2-phenyl-5,6-dihydropyrimido[4,5-d]pyridazin-4-ylamino)phenyl)-6-azaspiro[2.5]octane-1-carboxylic acid]: for the setting “dose 3 mg/Kg”, the “Edema area % Inhibition” value is reported as 48*** % and the “OD % Inhibition” value is given as 53*** %. Further, where the note is “dose 30 mg/Kg”, the “Edema area % Inhibition” value is 60*** % and the “OD % Inhibition” value was 60*** %.
For `O=C(O)C1CCN(c2ccc(Nc3nc(-c4ccccc4)nc4cn[nH]c(=O)c34)cc2)CC1` [Example 13, 1-(4-(5-oxo-2-phenyl-5,6-dihydropyrimido[4,5-d]pyridazin-4-ylamino)phenyl)piperidine-4-carboxylic acid], where the note is “dose 10 mg/Kg”, the “Edema area % Inhibition” value is given as 53*** % and the “OD % Inhibition” value worked out at 27%. Under “dose 30 mg/Kg”, the “Edema area % Inhibition” value is listed as 40** % and the “OD % Inhibition” value amounted to 30%.
